Data set [1] can be described thus: Pharmacokinetic study in mice (plasma and brain). In kind it is in vivo. Particulars: male, C57BL/6, mouse, ip, 3 mg/kg i.p. Here is the method: To evaluate the amount of CycloAnt in mouse brain, we performed a pharmacokinetic experiment in mice. Mice were given CycloAnt at 3 mg/kg i.p.; blood was collected at 0, 15, 30, and 60 min post-injection. Immediately after the blood was collected, the mouse was intracardially perfused through the left ventricle with 20 mL PBS. The whole brain was isolated and homogenized. The blood and brain samples were processed by protein precipitation and centrifugation. The supernatants of the blood and brain samples were collected and analyzed by LC-MS/MS.
Pharmacokinetic study. Standard curve. Following euthanasia, mouse blood was collected in a heparin anticoagulation tube and the whole brain was isolated. For determination of the standard curve in mouse blood, 300 μL of blood was spiked with 0, 10, 100, and 1000 ng of CycloAnt, respectively, followed by adding 600 μL of ice-cold acetonitrile containing the internal standard (IS, Tyr-[D-Lys-Phe-Tyr-Gly]) at 200 ng/mL. The blood samples were thoroughly mixed and centrifuged at 10,000 rpm at 4 °C for 10 min. An aliquot of 600 μL of supernatant from each sample was collected and dried under vacuum, followed by reconstitution of the dried blood sample in 100 μL 20% acetonitrile. The reconstituted sample was centrifuged at 13,000 rpm, 4 °C for 5 min to remove the lipid content. The supernatant was collected for LC-MS/MS analysis. For mouse brain, the brain was homogenized with 250 μL of PBS at 0 °C, followed by adding 1 mL of ice-cold acetonitrile containing the IS. The brain sample was then spiked with 0, 10, 100, and 1000 ng of CycloAnt, respectively, and thoroughly mixed and centrifuged at 10,000 rpm, 4 °C for 10 min. An aliquot of 1000 μL of supernatant was collected and dried under vacuum, followed by adding 100 μL 20% acetonitrile to reconstitute the dried brain sample. The reconstituted sample was mixed and centrifugating at 13,000 rpm, 4 °C for 5 min to remove the lipid content. The supernatant was collected and analyzed by LC-MS/MS.
The peak areas of CycloAnt and IS were recorded; the relative measured concentration of CycloAnt was calculated using the ratio of CycloAnt peak area vs. IS peak area. A standard concentration curve (Figure S8) was then generated for CycloAnt in the matrix of blood and brain, respectively.
Pharmacokinetics. Eight-week-old male C57BL/6 mice (Jackson Laboratories, Bar Harbor, ME, USA) were used for pharmacokinetic studies. CycloAnt was given to mice (n = 2) i.p. at a dose of 3 mg/kg. At 15, 30, and 60 min post-administration, mouse blood was collected in a heparin anticoagulation tube. After blood collection, the mouse was intracardially perfused through the left ventricle with 20 mL PBS, followed by isolation of the whole brain. To process the blood sample, 300 μL blood was mixed with 600 μL of ice-cold acetonitrile containing the IS at 200 ng/mL, followed by centrifugation at 10,000 rpm, 4 °C for 10 min. To process the brain sample, 250 μL of ice-cold PBS was added to the isolated brain and homogenized at 0 °C, followed by mixing with 1 mL of ice-cold acetonitrile containing the IS. The brain sample was then centrifuged at 10,000 rpm, 4 °C for 10 min. The supernatants were collected from the blood sample (600 μL) and the brain sample (1 mL), respectively, and dried under vacuum. The blood and brain samples were reconstituted in 100 μL of 20% acetonitrile. The samples were then centrifuged at 13,000 rpm, 4 °C for 5 min to remove the lipid content. The supernatants were collected from the blood and brain samples and analyzed by LC-MS/MS.

Data set [2] can be described thus: LC-MS/MS search for metabolites in mouse plasma after i.p. administration. In kind it is in vivo. Particulars: mouse plasma 15 min after 10 mg/kg i.p.; from m/z intensity. Here is the method:
To verify if CycloAnt could be metabolized in vivo, we looked for the possible metabolites (Scheme S1) in a blood sample collected from mice 15 min after i.p. administration of CycloAnt at a dose of 10 mg/kg. The proteins in the mouse plasma were precipitated by ice-cold acetonitrile containing internal standard. Following centrifugation, the supernatant was collected, and analyzed by LC-MS/MS. A total ion current (TIC) scan was conducted for the mass-to-charge ratio (m/z) in the range of 300–1500 for all ions, followed by the targeted narrow range scans. The scans in the range of 650–690 and 325–346 are aimed at detecting the potential [M + 1]^+ and [M + 2]^2+ ions from the Phase I metabolites, the enzymatically cleaved peptides, and intact CycloAnt, respectively (Figure S1 and Figure 2); and the scans in the range of 843–852 and 422–428 are for detecting the potential [M + 1]^+ and [M + 2]^2+ ions from the Phase II glucuronidation, respectively (Figure S3). The [M + 1]^+ and [M + 2]^2+ ions were then extracted from the narrow range scans for the potential enzymatically cleaved products (Figure S1), the Phase I metabolites (Figure S2), and the Phase II UGT metabolites (Figure S3). The relative abundance of the tallest peak was assigned as 100. […]

In data set [3] the test system is respiration in mice. On the set-up: method as in PMID 38005269. Particulars: high doses up to 15 times the ED50, mice; cited from earlier work.
Data set [4] has as its system physical dependence in mice. Also on record: method as in PMID 38005269. Particulars: chronic administration, naloxone-precipitated withdrawal; cited from earlier work.

SMILES strings stand for the structures. Where two headings read alike, the source gives them in different places. Where a SMILES comes first, the peptide text is derived from it. Bridges are numbered along the chain shown (N, C = ends). [ ]: non-standard residue; d: D form. 2Abz = Nc1ccccc1C(=O)O; Dap = NC[C@H](N)C(=O)O

As for `C[C@@H](O)[C@@H]1NC(=O)[C@H](CNC(=O)c2ccccc2N)NC(=O)[C@H](NC(=O)[C@@H](N)Cc2ccc(O)cc2)CCCCNC(=O)CNC1=O` [CycloAnt] (H-Y[dK][Dap](2Abz)TG; lactam 2-C), the Tmax in data set [1] (brain, read-out: time of maximum concentration in brain (converted)) is 15 min; in data set [1] (whole blood, read-out: time of maximum concentration in blood (converted)), 15 min. In addition, the Cmax in data set [1] (assuming density of brain tissue 1 g/mL, read-out: maximum concentration in brain (Cmax,br)) was found to be 70 nM; in data set [1] (perfused brain, read-out: maximum concentration in brain (Cmax,br)), 46 ng/g; in data set [1] (plasma, read-out: maximum concentration in mouse plasma (Cmax,pl)) it was 411 ng/mL. Further, the AUC in data set [1] (plasma, 0-60 min, read-out: AUCbld (plasma) (converted)) is 173 ng·h/mL. The “concentration of any metabolites relative to CycloAnt in plasma (fold lower)” value in data set [2] is reported as 10^3- to-10^4 fold. For the same compound, the respiratory depression entry in data set [3] is listed as “does not produce any respiratory depression”. The physical dependence entry in data set [4] is “significantly reduced physical dependence”.

The record behind these values is paper PMC11546339, “Conformational Plasticity Enhances the Brain Penetration of a Metabolically Stable, Dual-Functional Opioid-Peptide CycloAnt” (International Journal of Molecular Sciences, 2024).
